Measurements: ChEMBL document CHEMBL1201862, “PubChem BioAssay data set” (2004)
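Growth conditions: 96-well plates. Treatment: test compound, 48 hours, 5 concentrations. Analysis: linear interpolation between bracketing concentrations; unreached endpoints set to highest concentration. At the GI50, growth is halved.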 Calls of active or inactive are those of the source. No stated cut-off is given here; in the data, active = GI50 up to about 1.1 µM and inactive = higher.

What was measured:
Assay in all cases: growth of human tumour cells (NCI), 48 h
[1] = system: 786-0
[2] = system: ACHN
[3] = system: CAKI-1
[4] = system: CCRF-CEM
[5] = system: COLO 205
[6] = system: DU-145
[7] = system: EKVX
[8] = system: HCC 2998
[9] = system: HCT-116
[10] = system: HCT-15
[11] = system: HL-60
[12] = system: HOP-62
[13] = system: HOP-92
[14] = system: HT-29
[15] = system: Hs-578T
[16] = system: IGROV-1
[17] = system: K562
[18] = system: KM12
[19] = system: LOX IMVI
[20] = system: M14
[21] = system: MCF7
[22] = system: MDA-MB-231
[23] = system: MDA-MB-435
[24] = system: MDA-N
[25] = system: MOLT-4
[26] = system: Malme-3M
[27] = system: NCI-H226
[28] = system: NCI-H23
[29] = system: NCI-H460
[30] = system: NCI-H522
[31] = system: NCI/ADR-RES
[32] = system: OVCAR-3
[33] = system: OVCAR-4
[34] = system: OVCAR-5
[35] = system: OVCAR-8
[36] = system: PC-3
[37] = system: RPMI-8226
[38] = system: RXF 393
[39] = system: SF-268
[40] = system: SF-295
[41] = system: SF-539
[42] = system: SK-MEL-28
[43] = system: SK-MEL-5
[44] = system: SK-OV-3
[45] = system: SN12C
[46] = system: SNB-19
[47] = system: SR
[48] = system: SW-620
[49] = system: T47D
[50] = system: TK-10
[51] = system: U-251
[52] = system: UACC-257
[53] = system: UACC-62
[54] = system: A498
[55] = system: SK-MEL-2
[56] = system: SNB-75
[57] = system: UO-31

## O=C1Oc2cc3c(c4cccc1c24)O[C@H](c1ccccc1)[C@@H](c1ccccc1)[C@@H]3c1ccc(Cl)cc1
[1]
  GI50: 17.6 µM (inactive)
[2]
  GI50: 26.7 µM (inactive)
[3]
  GI50: > 100 µM (inactive)
[4]
  GI50: 49 µM (inactive)
[5]
  GI50: > 100 µM (inactive)
[6]
  GI50: > 100 µM (inactive)
[7]
  GI50: > 100 µM (inactive)
[8]
  GI50: > 100 µM (inactive)
[9]
  GI50: 31.8 µM (inactive)
[10]
  GI50: > 100 µM
[11]
  GI50: > 100 µM (inactive)
[12]
  GI50: 18.2 µM (inactive)
[13]
  GI50: 28.8 µM (inactive)
[14]
  GI50: > 100 µM (inactive)
[15]
  GI50: 88.7 µM (inactive)
[16]
  GI50: 22.8 µM (inactive)
[17]
  GI50: 46.1 µM (inactive)
[18]
  GI50: > 100 µM (inactive)
[19]
  GI50: 68.4 µM (inactive)
[20]
  GI50: 40.1 µM (inactive)
[21]
  GI50: > 100 µM (inactive)
[22]
  GI50: 18.3 µM (inactive)
[23]
  GI50: 76.7 µM (inactive)
[24]
  GI50: > 100 µM (inactive)
[25]
  GI50: 19.6 µM (inactive)
[26]
  GI50: 37.3 µM (inactive)
[27]
  GI50: 76 µM (inactive)
[28]
  GI50: 34 µM (inactive)
[29]
  GI50: > 100 µM (inactive)
[30]
  GI50: 38 µM (inactive)
[31]
  GI50: > 100 µM (inactive)
[32]
  GI50: 36.8 µM (inactive)
[33]
  GI50: 82 µM (inactive)
[34]
  GI50: > 100 µM (inactive)
[35]
  GI50: 16.2 µM (inactive)
[36]
  GI50: > 100 µM (inactive)
[37]
  GI50: 58.1 µM (inactive)
[38]
  GI50: 17.4 µM (inactive)
[39]
  GI50: 31.9 µM (inactive)
[40]
  GI50: 42.7 µM (inactive)
[41]
  GI50: 33.7 µM (inactive)
[42]
  GI50: > 100 µM (inactive)
[43]
  GI50: > 100 µM (inactive)
[44]
  GI50: 45.2 µM (inactive)
[45]
  GI50: 79.4 µM (inactive)
[46]
  GI50: 29.4 µM (inactive)
[47]
  GI50: 18.8 µM (inactive)
[48]
  GI50: > 100 µM (inactive)
[49]
  GI50: 58.6 µM (inactive)
[50]
  GI50: 39.3 µM (inactive)
[51]
  GI50: 19.6 µM (inactive)
[52]
  GI50: > 100 µM (inactive)
[53]
  GI50: 19.3 µM (inactive)

## O=C(/C=C\c1ccccc1)N1CCc2ccccc2C1
[1]
  GI50: 87.5 µM (inactive)
[54]
  GI50: 53.2 µM (inactive)
[2]
  GI50: 38.2 µM (inactive)
[3]
  GI50: 67.1 µM (inactive)
[4]
  GI50: 29 µM (inactive)
[5]
  GI50: 20.6 µM (inactive)
[6]
  GI50: > 100 µM (inactive)
[7]
  GI50: 32.4 µM (inactive)
[8]
  GI50: > 100 µM (inactive)
[9]
  GI50: 34.6 µM (inactive)
[10]
  GI50: 55.8 µM
[11]
  GI50: 29.8 µM (inactive)
[12]
  GI50: > 100 µM (inactive)
[13]
  GI50: 42.6 µM (inactive)
[14]
  GI50: 51.4 µM (inactive)
[15]
  GI50: 60.7 µM (inactive)
[16]
  GI50: 73.8 µM (inactive)
[17]
  GI50: 19.4 µM (inactive)
[18]
  GI50: 36.5 µM (inactive)
[19]
  GI50: 79.1 µM (inactive)
[20]
  GI50: 60.5 µM (inactive)
[21]
  GI50: 49.7 µM (inactive)
[22]
  GI50: > 100 µM (inactive)
[23]
  GI50: 27.2 µM (inactive)
[27]
  GI50: > 100 µM (inactive)
[28]
  GI50: 14.9 µM (inactive)
[29]
  GI50: 60.3 µM (inactive)
[31]
  GI50: 44 µM (inactive)
[33]
  GI50: 93.1 µM (inactive)
[35]
  GI50: 51.9 µM (inactive)
[36]
  GI50: 34.4 µM (inactive)
[37]
  GI50: 23.5 µM (inactive)
[38]
  GI50: 44.4 µM (inactive)
[39]
  GI50: 49.7 µM (inactive)
[40]
  GI50: 34.9 µM (inactive)
[41]
  GI50: 49.8 µM (inactive)
[42]
  GI50: 61 µM (inactive)
[55]
  GI50: 31.3 µM (inactive)
[43]
  GI50: 17.1 µM (inactive)
[44]
  GI50: > 100 µM (inactive)
[46]
  GI50: 67.8 µM (inactive)
[56]
  GI50: 52.7 µM (inactive)
[47]
  GI50: 24.1 µM (inactive)
[48]
  GI50: 63.5 µM (inactive)
[49]
  GI50: 20.1 µM (inactive)
[50]
  GI50: > 100 µM (inactive)
[51]
  GI50: 80.7 µM (inactive)
[52]
  GI50: 38.9 µM (inactive)
[53]
  GI50: 43.4 µM (inactive)
[57]
  GI50: 39 µM (inactive)
